From patent publication US20200102353A1, “HUMAN ENDOGENOUS RETROVIRAL PROTEIN” (priority 2017, published 2020)

What was measured:
[1] = system: HEMO release in the supernatant; test: Inhibition of HEMO release (shedding) in supernatant of phCMV-HEMO transfected 293T cells, Western blot; assay type: cell-based, human; settings: 293T cells transfected with phCMV-HEMO, treated 3 days, BATIMASTAT 0.1 to 10 μM, MARIMASTAT 0.1 to 10 μM, GM6001 1 to 50 μM
Experimental: For treatment with metalloprotease inhibitors, 5×10^5 293T cells were seeded in 6-well dishes with 2 mL/well of culture medium. One day after seeding, cells were transiently transfected using 1.5 μg phCMV-HEMO plasmid and 4.5 μL Lipofectamine LTX (THERMOFISHER) per well. One day post-transfection, cells were incubated with culture medium supplemented with the indicated concentrations of metalloprotease inhibitors (CALBIOCHEM): BATIMASTAT (0.1 to 10 μM), MARIMASTAT (0.1 to 10 μM) or GM6001 (1 to 50 μM). Medium with inhibitors was replenished for 2 other days, and supernatants were collected and filtered through 0.45 μm MILLIPORE filters one day later. Cells were harvested the same day for protein analysis.
Samples, cell supernatants or cell lysates were analyzed by SDS/PAGE on gradient precast gels (NuPAGE NOVEX 4-12% Bis-Tris gels, LIFE TECHNOLOGIES), and transfer onto nitrocellulose membranes using a semi-dry transfer system. […] Proteins were detected by using an enhanced chemiluminescence system (ECL, PIERCE).

HEMO gene = test: Effect of DNA demethylation on HEMO gene expression, RT-qPCR; assay type: cell-based, human; settings: for dose at which HEMO transcripts were detectable by qRT-PCR: 3-day treatment, doses 0.1 to 5 μM
Experimental: For treatment with 5-Aza-2′-deoxycytidine (5-Aza-dC; SIGMA-ALDRICH), 2×10^5 BeWo and 293T cells were plated in 6-well dishes. Doses ranging from 0.1 to 5 μM of 5-Aza-dC were then added to the culture for 3 days, with fresh medium each day. Cells were harvested for RNA extraction one day later.
Total RNAs from human tissues and cells were either purchased from ZYAGEN (San Diego), or isolated using the RNAeasy Isolation Kit (QIAGEN) according to the manufacturer's instructions, and treated with Dnase I (AMBION). Reverse transcription was performed with 1 μg of RNA using the MLV reverse-transcriptase (APPLIED BIOSYSTEMS). Real-time quantitative PCR was carried out with 5 μl of diluted (1:20) cDNA in a final volume of 25 μl by using SYBR green PCR master mix (QIAGEN). qPCR was carried out with an ABI Prism 7000 sequence detection system, using primers listed in Table 4 above. Transcript levels were normalized relative to the amount of a housekeeping gene (RPLPO or G6PD) mRNA. Samples were assayed in duplicate.

Row | SMILES | HEMO release in the supernatant [1] | dose at which HEMO transcripts were detectable by qRT-PCR (HEMO gene; 293T cells) [µM] | dose at which HEMO transcripts were detectable by qRT-PCR (HEMO gene; BeWo cells) [µM] | HEMO gene transcript level after treatment (HEMO gene; CaCo-2 cells (HEMO-expressing), similar 5-Aza-dC treatment)
1 | CNC(=O)[C@@H](NC(=O)[C@H](CC(C)C)[C@H](O)C(=O)NO)C(C)(C)C [MARIMASTAT] | clearly inhibited HEMO release in the supernatant | – | – | –
2 | Nc1ncn([C@H]2C[C@H](O)[C@@H](CO)O2)c(=O)n1 [5-Aza-dC, 5-Aza-2′-deoxycytidine] | – | 5 | 0.1 | not further amplified
3 | CNC(=O)[C@H](Cc1c[nH]c2ccccc12)NC(=O)[C@@H](CC(=O)NO)CC(C)C [GM6001] | clearly inhibited HEMO release in the supernatant | – | – | –
